By EC50 is commonly meant the concentration needed to bring the measured effect to its halfway point. Higher therefore signals a need for much substance. A word on the IC50: it is the midpoint of a concentration-inhibition curve.

Where only a bound is given, the exact number is not on record here.

The test system of one experiment is IL-6. Nature of the experiment: IL-6 inhibition (HTRF) in LPS-stimulated human peripheral blood mononuclear cells. It is filed as cell-based. The settings on record: IL-6 in LPS-stimulated huPBMCs; for value in parentheses after >10 (% inhibition at top concentration): where EC50 >10 μM; for EC50: 22 hours, dose-response starting from 10 μM. For orientation: In TR-FRET formats the signal depends on donor and acceptor labels being close together.

A further experiment deals with DYRK1A kinase (Homo sapiens (Human), UniProt Q13627). Nature of the experiment: DYRK1A kinase activity assay (Ser/Thr 18 peptide Z-lyte, FRET). The experiment is classed as biochemical. To be noted: method calls the values IC50.
The target in the next experiment is GSK3β kinase (Homo sapiens (Human), UniProt P49841). Nature of the experiment: GSK3β kinase activity assay (Ser/Thr 09 peptide Z-lyte, FRET). The experiment is classed as biochemical. The settings on record: method calls the values IC50.
The subject of experiment [1] is Tau phosphorylation at Ser396 (pSer396). Nature of the experiment: Tau phosphorylation assay (pSer396 ELISA / western blot) in SH-SY5Y cells. It is filed as cell-based, human. The settings on record: overnight (16-18 h) exposure. In general terms: ELISA stands for enzyme-linked immunosorbent assay.
Method: Two days before treatment, cells were seeded onto 96 well plates at 5×10^4 cells/well.
Wells were visually checked for cell death or change in morphology and supernatants were tested for cytotoxicity by measurement of lactate dehydrogenase release (LDH, CytoToxOne kit, Promega) if necessary.
Cells were lysed with RIPA buffer complemented with phosphatase and protease inhibitors then lysates were spun down at 12,000 g for 10 min to remove any cellular debris. Lysates are then either directly tested for pSer396 by ELISA (Life Technology, Kit KHB7031) or loaded on NuPage Bis-Tris gels for western blot analysis. Colorimetric detection of ELISA signal is performed by Cytation3 plate reader (Biotek) and the chemiluminescence signal for HRP-linked antibodies used in western blotting is detected using a Carestream Image Station. The same pSer396 antibody is used for detection of pTau in both assays.
A further experiment relates to Wnt activity. Kind of experiment: Screening assay for Wnt activity (Sp5-Luc reporter gene assay in SW480 cells). It is filed as cell-based, human. The settings on record: 36 to 48 hours. On the technique in general: A reporter such as luciferase makes a cellular process visible.
For experiment [2], the system named is SW480 colon carcinoma cells. Kind of experiment: Cell viability assay (CellTiter-Glo) in SW480 cells. It is filed as cell-based, human. The settings on record: four days incubation.
The test system of experiment [3] is primary human fibroblasts derived from IPF patients (LL29 cells). Nature of the experiment: Fibrosis assay: αSMA staining in TGF-β1 treated LL29 fibroblasts. The experiment is classed as cell-based. The settings on record: for EC50: LL29 fibroblasts treated with TGF-β1, 4 days, αSMA, dose-response 10 μM to […].
The next experiment concerns secreted Aβ40 peptide. Kind of experiment: Secreted β-amyloid 40 (Aβ40) peptide assay in APP overexpressing SH-SY5Y-APP cells. The experiment is classed as cell-based. The settings on record: Homo sapiens, overnight (16-18 hours), supernatant.

Chain of GSK3β kinase (P49841 whole entry): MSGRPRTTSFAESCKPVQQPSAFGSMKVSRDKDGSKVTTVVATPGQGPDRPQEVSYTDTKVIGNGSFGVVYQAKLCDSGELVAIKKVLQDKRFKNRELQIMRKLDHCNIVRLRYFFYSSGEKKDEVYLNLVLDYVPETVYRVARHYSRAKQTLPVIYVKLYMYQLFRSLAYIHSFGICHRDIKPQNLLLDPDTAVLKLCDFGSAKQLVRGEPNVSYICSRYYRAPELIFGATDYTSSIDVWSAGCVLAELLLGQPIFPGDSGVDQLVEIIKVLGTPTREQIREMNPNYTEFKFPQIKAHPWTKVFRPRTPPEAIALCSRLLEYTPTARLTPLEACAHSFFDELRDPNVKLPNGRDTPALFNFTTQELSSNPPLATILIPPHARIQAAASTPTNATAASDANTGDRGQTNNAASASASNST
Method for IL-6: After 22 hour incubation, a mixture of ani-IL6XL665 and anti-IL-6 Cryptate diluted in reconstitution buffer (Catalog #62IL6PEC, Cisbio Inc., Bedford, Mass.) was added to each well. […] All samples were processed in duplicate. […] EC50 was determined using software generated by Dotmatics Limited (Windhill Bishops Stortford Herts, UK) using the Levenberg-Marquardt 4 parameter fitting procedure with finite different gradients.
Method for Wnt activity: The screening assay for Wnt activity is described as follows.
Following incubation, 15 μl of BriteLite Plus luminescence reagent (Perkin Elmer) was added to each well of the 384-well assay plates. The plates were placed on an orbital shaker for 2 min and then luminescence was quantified using the Envision (Perkin Elmer) plate reader.
Method for secreted Aβ40 peptide: SH-SY5Y cells were infected with lentivirus to overexpress amyloid (A4) beta precursor protein (APP), hereafter referred to as the SH-SY5Y-APP cells.
SH-SY5Y cells were seeded onto 6-well plates at 5.0×10
[formula] and incubated overnight at 37° C.
Polybrene added for permeability (H9268, Sigma). 24 hours post-transfection, the entire volume from each well was replaced with regular SH-SY5Y medium.
Puromycin-resistant cell were then expanded, harvested and banked. APP-overexpression was controlled by immunoblotting for total APP and Myc-DDK.
The cell assay procedure start 18 h prior to treatment, as SH-SY5Y-APP cells were seeded onto 96-well plates at 2.0×10^4
At this time, designated wells were seeded with SH-SY5Y cells that were seeded and treated with puromycin at 10
Cells were exposed overnight (16-18 hours) in a 37° C. incubator before supernatant was harvested. […] The original plates with seeded cells were tested for cytotoxicity by measure of adenosine triphosphate (ATP) release by adding CellTiter-Glo® diluted 1:4 in distilled water (G7573, Promega) and transferring lysed cells to a completely black 96-well plate to be read with the Cytation3. Plates containing supernatant were spun down at 1200 g for 10 minutes to remove any cellular debris. […]

On to `Cn1cc(-c2ccc3cnc(NC(=O)C4C(C)(C)C4(C)C)cc3c2)nn1` [Compound 277, 2,2,3,3-Tetramethyl-N-(6-(1-methyl-1H-1,2,3-triazol-4-yl)isoquinolin-3-yl) cyclopropane-1-carboxamide], for which the “value in parentheses after >10 (% inhibition at top concentration)” value (“value … (% inhibition at top concentration)” for short) in the experiment on IL-6 was determined as 4.0%.

With “N-(6-(1-Methyl-1H-pyrazol-4-yl)isoquinolin-3-yl)-2-(pyrrolidin-1-yl-2,2,5,5-d4)acetamide [Compound 315]”, the EC50 on DYRK1A kinase stood at 12.3 nM; on GSK3β kinase, 44 nM; in experiment [1], 346 nM; with Wnt activity, 1590 nM; in experiment [2] it was 1250 nM; with IL-6 it was 819 nM. For the same molecule, the EC50 in experiment [3] turned out to be 1820 nM.

For the molecule “N-(6-(1-Methyl-1H-pyrazol-4-yl)isoquinolin-3-yl)-2-(6-azaspiro[2.5]octan-6-yl)acetamide [Compound 296]”, the EC50 amounted to 14.3 nM on DYRK1A kinase; 80 nM on GSK3β kinase; 978 nM in experiment [1]; 3480 nM in the experiment on Wnt activity; 3460 nM in experiment [2]; 1580 nM in the experiment on IL-6. The EC50 in experiment [3] is 1960 nM.

As for `Cc1nnc(-c2ccc3cnc(NC(=O)CN4C5CCC4COC5)cc3c2)s1` [Compound 962, 2-(3-Oxa-8-azabicyclo[3.2.1]octan-8-yl)-N-(6-(5-methyl-1,3,4-thiadiazol-2-yl)isoquinolin-3-yl)acetamide], the “value … (% inhibition at top concentration)” value in the experiment on IL-6 is reported as 9.6%.

The molecule `Cn1cncc1-c1ccc2cnc(NC(=O)C3C(C)(C)C3(C)C)cc2c1` [Compound 269, 2,2,3,3-Tetramethyl-N-[6-(3-methylimidazol-4-yl)-3-isoquinolyl]cyclopropanecarboxamide] had an IC50 in the experiment on secreted Aβ40 peptide of over 10000 nM.

Turning to `Cn1cc(-c2ccc3cnc(NC(=O)CN4C5CCC4COC5)cc3c2)cn1` [Compound 347, 2-(3-Oxa-8-azabicyclo[3.2.1]octan-8-yl)-N-(6-(1-methyl-1H-pyrazol-4-yl)isoquinolin-3-yl)acetamide], the “value … (% inhibition at top concentration)” value in the experiment on IL-6 is recorded as 4.5%.

On to `Cn1cc(-c2ccc3cnc(NC(=O)CN4C5CCC4CC5)cc3c2)nn1` [Compound 513, 2-(7-Azabicyclo[2.2.1]heptan-7-yl)-N-(6-(1-methyl-1H-1,2,3-triazol-4-yl)isoquinolin-3-yl)acetamide], for which the “value … (% inhibition at top concentration)” value with IL-6 worked out at 14.5%.

Regarding `Cc1nnc(-c2ccc3cnc(NC(=O)CN4C5CCC4CC5)cc3c2)s1` [Compound 959, 2-(7-Azabicyclo[2.2.1]heptan-7-yl)-N-(6-(5-methyl-1,3,4-thiadiazol-2-yl)isoquinolin-3-yl)acetamide], the “value … (% inhibition at top concentration)” value with IL-6 was 6.1%.

Turning to `CC(C)CN1CCC[C@@H](C(=O)Nc2cc3cc(-c4cnn5c4CN(CCF)CC5)ccc3cn2)C1` [Compound 1002, (R)—N-(6-(5-(2-Fluoroethyl)-4,5,6,7-tetrahydropyrazolo[1,5-a]pyrazin-3-yl)isoquinolin-3-yl)-1-isobutylpiperidine-3-carboxamide], the “value … (% inhibition at top concentration)” value in experiment [3] (LL29 fibroblasts treated with TGF-β1, where EC50 >10 μM) came out at 27.5%.

For the molecule `Cn1cc(-c2ccc3cnc(NC(=O)C45CCN(CC4)CC5)cc3c2)cn1` [Compound 1071, N-(6-(1-Methyl-1H-pyrazol-4-yl)isoquinolin-3-yl)quinuclidine-4-carboxamide], the “value … (% inhibition at top concentration)” value with IL-6 is reported as 8.8%.

Source of the values: patent publication US11174244B2, “Isoquinolin-3-yl carboxamides and preparation and use thereof” (BioSplice Therapeutics, Inc., priority 2016, dated 2021).
